Test results reported in PMC8567874, “Metronomic delivery of orally available pemetrexed-incorporated colloidal dispersions for boosting tumor-specific immunity” (Drug Delivery, 2021).
Like-named read-outs stand apart in the source and are kept apart here.

Columns and labels:
[1] = test system: LLC cell-bearing mice; assay: In vivo antitumor efficacy in LLC cell-bearing mice; design: species or system C57BL/6 mice
Method: The in vivo dose-dependent antitumor effects of oral PMX/DL(1:1)-CD compared to PMX-IV were evaluated by inoculating LLC cells at a density of 1 × 10^6 cells/100 μL PBS (pH 7.4) into the right dorsal flanks of 6-week-old female C57BL/6 mice. The oral doses for PMX/DL(1:1)-CD with antitumor activities without toxic effects were determined based on our previous study (Maharjan et al., [2019]). […] The body weights and tumor volumes of all mice were measured every 3 days. Tumor volume was then calculated as a^2 × b × 0.52, where a and b were the width and length of the tumor, respectively. The mice were sacrificed and the tumor masses were measured 21 days after drug administration.

[2] = In vivo pharmacokinetic study in rats; design: species or system Sprague–Dawley (SD) rats
Method: The separated plasma samples were kept at −80 °C before analysis and the drug concentration in each plasma sample was determined by LC-MS. […] Agilent Technologies, Santa Clara, CA, USA), conditioned with 500 µL of methanol, followed by 500 µL of deionized water. After loading the standards or samples into the cartridges, the unadsorbed particles were washed out with 500 µL of deionized water and methanol. […] PMX and IS were ionized using electrospray ionization (ESI) source in positive ion mode under a capillary voltage of 3.5 kV, drying gas flow rate of 3.1 L/min, and drying gas temperature of 300 °C. […] Pharmacokinetic parameters were estimated using a non-compartmental model in WinNonlin® software (ver. 5.3; Pharsight Corp., Mountain View, CA, USA). All data were expressed as means ± standard deviations (SDs), or standard errors of the mean (SEMs). Statistical analysis was performed by one-way analysis of variance (ANOVA) followed by Tukey’s multiple comparison test for unpaired data with more than three means. In all analyses, p < .05 was taken to indicate statistical significance.

[3] = In situ single-pass rat intestinal perfusion; format: in vivo; conditions: other: in situ single-pass intestinal perfusion; for concentration at 15 min / concentration at 30 min / concentration at 45 min / concentration at 60 min / concentration at 75 min / concentration at 90 min / concentration at 105 min / concentration at 120 min: rat, outlet intestinal perfusate, 100 μg/mL, rat intestinal perfusion
Method: The in situ single-pass intestinal effective permeabilities (Peff) of PMX, PMX/DL(1:1), PMX/DL(1:2), PMX/DL(1:1)-CD, and PMX/DL(1:2)-CD were investigated in rats. The rats were fasted overnight for 12–16 h with free access to water before the experiment and then anesthetized by intramuscular injection of tiletamine·HCl–zolazepam mixture (1:1 [w/w]; 40 mg/kg). With the animal in the supine position, the abdominal cavity was opened using a midline longitudinal incision, and the intestine (duodenum, jejunum, and ileum) was exposed and subsequently intubated at the two ends with a polypropylene perfusion tube connected to a peristaltic pump (Harvard Apparatus, Holliston, MA, USA). After covering the entire excised area with a cotton pad soaked with warm normal saline, the cannulated intestinal segments were flushed with blank perfusion buffer at 37 °C for 30 min, at a constant flow rate of 0.5 mL/min, to remove residual intestinal contents. Then, drug solutions of PMX, PMX/DL(1:1), PMX/DL(1:2), PMX/DL(1:1)-CD, or PMX/DL(1:2)-CD (equivalent to 100 μg/mL PMX) were perfused through the intestinal lumen at 37 °C and a constant flow rate of 0.2 mL/min. After allowing 30 min to achieve a steady-state, outlet perfusate was collected every 15 min for 120 min. In addition, to assess the reliability of the perfusion study, 100 μg/mL fluorescein diluted in perfusion buffer was perfused separately under the same conditions and the collected samples were analyzed at excitation/emission wavelengths of 494/512 nm using a microplate reader (PerkinElmer multimode plate reader; PerkinElmer, Waltham, MA, USA) as a low-permeability marker. During the experiment, all animals were kept on heated pads under a heat lamp to maintain a normal body temperature. At the end of the experiment, the lengths and radii of the cannulated intestinal segments were measured, taking care to avoid stretching them. The collected samples were then filtered using 0.45-μm PVDF filters and stored at −20 °C before analyses. The outlet concentration of PMX in the perfusate was analyzed by HPLC as described above. In addition, the errors caused by rat intestinal water absorption and secretion during perfusion were corrected by the net water flux (ratio of the […] perfusate flows, Qout/Qin) and the corrected drug concentration in perfusate for each formulation was calculated based on the following equation (i.e. gravimetric method): Cout,corr = Cout × (Qout/Qin), where Cout,corr is the corrected outlet PMX concentration (µg/mL), Cout is the PMX outlet concentration (µg/mL), Qin (mL/min) is the flow rate entering the intestine, and Qout (mL/min) is the measured perfusate exit flow (net weight/15 min, assumed density of 1.0 g/mL) for the specified time interval. After correction, the Peff was calculated using the equation: Peff = Qin/A × ln(Cout,corr/Cin), where A is the intestinal area available for absorption (2πrl) based on its length (l) and radius (r).

[4] = test system: CT26.CL25 cells; assay: Immunofluorescence (confocal) analysis of ICD induction; format: cell-based; conditions: CT26.CL25, 300 µM, 48 h, confocal microscopy
Method: CT26.CL25 cells, cultured in coverslips at 1 × 10^4 cell density, were treated with 300 µM DL, 300 µM PMX, or PMX/DL (equivalent to 300 µM PMX) for 48 h. The PMX dose was converted from the Cmax of the pharmacokinetic profile in patients treated with 500 mg/m^2 PMX-IV (Li et al., [2007]). The cells were then washed with PBS, fixed in 10% formalin solution, and incubated with a cell membrane marker, Texas Red-X conjugated wheat germ agglutinin solution (5 µg/mL), for 10 min at room temperature. The cells were washed and permeabilized with 1% Triton-X solution for 40 min at room temperature. The cells were then incubated overnight with primary anti-CRT (1:200) or anti-HMGB-1 (1:200) antibodies at 4 °C after washing with PBS. On the following day, the cells were washed and incubated with secondary anti-rabbit Alexa Fluor 488 (1:400; Invitrogen; Thermo Fisher Scientific) for 1 h at room temperature and then stained with DAPI. Confocal laser scanning microscopy (TCS SP8; Leica Microsystems, Wetzlar, Germany) was used to obtain images.

[5] = Sprague-Dawley, rat, plasma, IV, 10 mg/kg PMX
[6] = Sprague-Dawley, rat, plasma, oral, 20 mg/kg PMX
[7] = read-out: Corrected outlet PMX concentration (Cout,corr)
[8] = read-out: Outlet concentration of PMX (Cout)

Nc1nc2[nH]cc(CCc3ccc(C(=O)N[C@@H](CCC(=O)O)C(=O)O)cc3)c2c(=O)[nH]1 [PMX, Pemetrexed]
Antitumor efficacy compared to the control group ([1]; IV 150 mg/kg PMX once every 3 weeks): 60.9%
Body weights compared to the control group ([1]; repeated administration for 3 weeks, all dose groups): did not change significantly
Cmax ([2]; IV, 10 mg/kg PMX): 32.3 ± 1.22 µg/mL
bioavailability ([2]; IV, 10 mg/kg PMX (reference)): 100%
AUC(0-inf) [2, 5]: 25300 ± 3560 ng·h/mL
AUC(0-t) [2, 5]: 25100 ± 3560 ng·h/mL
half-life [2, 5]: 57.2 ± 2.58 min
AUC(0-inf) [2, 6]: 8960 ± 89 ng·h/mL
AUC(0-t) [2, 6]: 3930 ± 380 ng·h/mL
Tmax [2, 6]: 30 min
half-life [2, 6]: 786 ± 109 min
bioavailability ([2]; Sprague-Dawley, rat, plasma, oral, 20 mg/kg PMX, read-out: Bioavailability): 7.8 ± 0.755%
Cmax ([2]; Sprague-Dawley, rat, plasma, oral, 20 mg/kg PMX, read-out: Cmax): 0.579 ± 0.073 µg/mL
Papp at 120 min, 100 μg/mL ([3]; rat intestine, n = 4, read-out: Effective permeability (Peff)): 83 ± 4.4 ×10⁻⁶ cm/s
concentration at 15 min [3, 7]: 93.8 ± 2.73 µg/mL
concentration at 15 min [3, 8]: 93.1 ± 1.73 µg/mL
concentration at 30 min [3, 7]: 96 ± 1.36 µg/mL
concentration at 30 min [3, 8]: 93.2 ± 0.04 µg/mL
concentration at 45 min [3, 7]: 94.1 ± 0.46 µg/mL
concentration at 45 min [3, 8]: 92.5 ± 0.51 µg/mL
concentration at 60 min [3, 7]: 95.4 ± 0.19 µg/mL
concentration at 60 min [3, 8]: 94.9 ± 0.19 µg/mL
concentration at 75 min [3, 7]: 95.8 ± 0.87 µg/mL
concentration at 75 min [3, 8]: 94.7 ± 1.19 µg/mL
concentration at 90 min [3, 7]: 96.5 ± 0.54 µg/mL
concentration at 90 min [3, 8]: 95.3 ± 0.87 µg/mL
concentration at 105 min [3, 7]: 95.8 ± 0.27 µg/mL
concentration at 105 min [3, 8]: 94.7 ± 1.92 µg/mL
concentration at 120 min [3, 7]: 96.4 ± 1.52 µg/mL
concentration at 120 min [3, 8]: 94.7 ± 1.82 µg/mL
CRT-fluorescence compared to controls and DL-treated cells [4]: more intense
HMGB-1-release compared to controls and DL-treated cells [4]: higher
